{
  "source": "patent US9896711B2",
  "about": "“Fluorogenic or fluorophoric compounds and uses thereof” (3M INNOVATIVE PROPERTIES COMPANY, priority 2011, dated 2018)",
  "key": {"[1]": {"details": "see Bioorg. and Med. Chem. Lett., 8, 3107-3110 (1998); cited from earlier work"}, "[2]": {"experiment": "physchem", "details": "100 mM phosphate buffer in a 96 well plate, pH 8", "method": "A 96 well plate was prepared with each well containing 100 microliters of 100 mM phosphate buffer at pH values ranging from 8.0 to 2.5 in 0.5 unit increments. […] A set of 10× diluted wells were also prepared to eliminate artifacts due to self-quenching of the fluorophore at high concentrations. The 10× dilutions were prepared by diluting the 1 mg/mL solution to 0.1 mg/mL in DMSO, and then adding 10 microliters of this solution to 100 microliters of 100 mM phosphate buffer in each of the wells.\nThe absorption spectra from 250 nanometers (nm) to 500 nm were recorded using a SPECTRAMAX M5 fluorescence plate reader (available from Molecular Devices of Sunnyvale Calif.) for each pH value.\nEmission spectra at wavelengths from 410 nm to 700 nm were also recorded on the SPECTRAMAX M5 fluorescence plate reader at an excitation wavelength of 400 nm over the range of pH values in the plate. […]\nThe absorption at 400 nm and emission at 450 nm over the range of pH values were recorded on a SPECTRAMAX M5 fluorescence plate reader. […]\nThe absorption spectra from 300 nanometers (nm) to 700 nm were recorded for the 10× diluted wells using a SPECTRAMAX M5 fluorescence plate reader (available from Molecular Devices of Sunnyvale Calif.) for each pH value. […]"}, "[3]": {"test_system": "Escherichia coli (ATCC 29425)", "experiment": "Detection of microbial colonies on bacterial culture plates by fluorescence imaging", "type": "cell-based", "details": "for time after which colonies were apparent in the images: Plates 8-1 and C-1, 200 nM, with MX-180 particles, about 20° C. to 27° C.; for mean fluorescence intensity of colonies over time: Plates 8-1 and C-1, averaged across 6 colonies, 30 seconds fluorescent illumination", "procedure": "A mixture of 50 grams of xanthan gum powder and 50 grams of locust bean gum powder was placed in a 500 mL bottle and shaken manually for about 5 minutes. A cover film was prepared by sprinkling the mixture onto the adhesive of a pressure-sensitive adhesive coated sheet that is commercially available under the trade designation 9795R ADVANCED SEALING TAPE from 3M Company in St. Paul Minn. The adhesive coated sheet was tilted to remove excess powder. The coating weight of the gums was approximately 85 milligrams per 24 square inches (i.e, 0.55 milligrams per square centimeter).\nA growth medium mixture was prepared by mixing 22.8 parts of pancreatic digest of casein, 15.9 parts of yeast extract, 45.5 parts of sodium pyruvate, 4.1 parts of dextrose, 9.0 parts of dibasic potassium phosphate, and 2.8 parts of monobasic potassium phosphate. A growth medium broth was prepared by mixing 500 mL of deionized water with 14.78 grams of the growth medium mixture in a beaker using an air motor mixer followed by adding 5 grams of locust bean gum in small increments, and mixing for several minutes. The beaker was covered with foil and the mixture was heated to 80° C., mixed for about 6 minutes, and then allowed to cool for about ten minutes while mixing without heat. The broth was then poured into a sterilized beaker, covered with a plastic bag and refrigerated. The cooled broth was stirred carefully with a spatula to avoid forming air bubbles and then knife coated onto a 24.4 cm wide sheet of 4 mil thick polyethylene terephthalate film that is commercially available under the trade designation MELINEX 453 from DuPont Teijin Films in Hopewell Va. The broth coated film was dried in an oven set at a temperature of 210° C. for about 10 minutes. The dried coating weight was about 1 mg per square centimeter.\nA 20.3 centimeter (cm) wide sheet of 4 mil (a mil is equal to 0.001 inches) thick closed cell polystyrene foam (commercially available from American Fuji Seal, Inc. of Bardstown, Ky.) was laminated to a pressure-sensitive adhesive transfer tape on a release liner. The specific transfer tape used has an acrylic pressure-sensitive adhesive and is commercially available from 3M Company (Saint Paul, Minn.) under the trade designation 3M […] ADHESIVE 927. Circular discs measuring 5 cm in diameter were die-cut and removed from the laminate, forming circular openings centered within a 7.6 cm square from one end of 7.6 cm by 10.16 cm rectangle. The liner was removed and the adhesive-coated surface of the polystyrene foam was adhered to the broth coated film to provide a base member having a broth-coated self-supporting substrate and a hydrophobic spacer element (i.e., “foam dam”) adhered to the broth-coated surface of the supporting substrate. Rectangular plates measuring 7.6 cm by 10.16 cm were cut from the laminate, with the circular openings centered within a 7.6 cm square on one end of the 10.16 cm length. The cover film was attached to the base member with the powder coated side facing the foam dam with a double sided pressure-sensitive adhesive tape to form a culture plate.\nFor Example 8, an indicator solution was prepared by dissolving FTU-gal from Example 6 in DMSO at a 50 mM (millimolar) concentration (Indicator 1). The solution was further diluted 20-fold to provide a 2.5 mM solution (Indicator 2).\nFor Comparative Example C1, indicator solutions were prepared by dissolving TU-gal in DMSO at a 20 mM concentration (Indicator 3). […]"}, "[4]": {"test_system": "β-D-galactosidase", "experiment": "Emission of fluorogenic galactoside at pH 2.5 to 8.0 in the presence and absence of β-D-galactosidase", "type": "biochemical", "details": "FIG. 6; emission 495 nm, excitation 430 nm, pH 5 to 7, with β-D-galactosidase; about two-thirds of sample fluorinated", "procedure": "Absorbance and emission spectra for the first fraction of FTU-gal was recorded at pH 2.5 to 8.0 in the presence and absence of β-D-galactosidase, and then compared to spectra of TU-gal (prepared according to U.S. Pat. No. 6,566,508 (Bentsen et al.) under the same conditions.\nAbout two-thirds of the sample tested was fluorinated."}},
  "note": "Where two headings read alike, the source gives them in different places.",
  "data": [
    {"molecule": "Cc1cc(=O)oc2c(F)c(O)c(F)cc12", "note": "[6,8-difluoro-4-methyl-7-hydroxycoumarin]", "values": [
      {"measurement": "pKa", "setting": "[1]", "result": 4.2}
    ]},
    {"molecule": "CCOC(=O)c1cc2cc(F)c(O)cc2oc1=O", "note": "[6-FEHC, 6-fluoro-3-ethylcarboxylate-7-hydroxycoumarin]", "values": [
      {"measurement": "pKa", "setting": "[2]", "result": "~4.5"}
    ]},
    {"molecule": "CCOC(=O)c1cc2ccc(O)cc2oc1=O", "note": "[EHC, 3-ethylcarboxylate-7-hydroxycoumarin, reference compound]", "values": [
      {"measurement": "pKa", "setting": "[2]", "result": "~6.5"}
    ]},
    {"molecule": "O=c1oc2cc(O[C@@H]3O[C@H](CO)[C@H](O)[C@H](O)[C@H]3O)ccc2cc1-c1cccs1", "note": "[TU-gal, 3-thienylumbelliferone-pyanogalactoside, reference compound]", "values": [
      {"measurement": "time after which colonies were apparent in the images", "setting": "[3]", "result": 14, "unit": "h"},
      {"measurement": "mean fluorescence intensity of colonies over time", "setting": "[3]", "result": "tended to plateau over time"}
    ]},
    {"molecule": "fluorinated 3-thienylumbelliferone-pyranogalactoside [FTU-gal]", "values": [
      {"measurement": "enhancement in intensity versus TU that is not fluorinated", "setting": "[4]", "result": "more than 2 fold"},
      {"measurement": "time after which colonies were apparent in the images", "setting": "[3]", "result": 14, "unit": "h"},
      {"measurement": "mean fluorescence intensity of colonies over time", "setting": "[3]", "result": "continued to increase"},
      {"measurement": "signal to noise (background) ratio over time", "setting": "[3]; Plates 8-1 and C-1, six colonies and six background spots", "result": "always higher"}
    ]}
  ]
}
